57 compounds from ChEMBL document CHEMBL1201862, “PubChem BioAssay data set” (2004) can be followed below.

Among the test systems are DMS-114; KM-20L2; LXFL 529; M19-MEL; SNB-78; Hs-578T; HOP-18; XF498; RXF 631.
Holding throughout (test): NCI tumour cell line growth inhibition, 48 h

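Method: 48-hour compound exposure of cells in 96-well plates, five concentrations, linear interpolation of endpoints. Abbreviation: GI50, concentration required for 50% inhibition of growth.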 Active and inactive are the calls of the source. Rule as the data show it: active = GI50 up to about 1.1 µM and inactive = higher.

Consider `COc1cc(-c2cc(O)c3ccccc3n2)cc(OC)c1OC`, for which the GI50 with DMS-114, with KM-20L2, in the assay on LXFL 529, in the assay on M19-MEL and with SNB-78 was > 75 µM (inactive) each time.

In the case of `CN(C)CCNC(=O)c1cccc2[nH]c(-c3ccncc3)nc12`, the GI50 in the assay with Hs-578T is 4.59 µM (inactive).

`COc1cc(C2c3cc4c(cc3OC(N3CCOCC3)C2C)OCO4)cc(OC)c1OC(C)=O` (stereo not drawn): the GI50 in the assay with Hs-578T is 2.2 µM (inactive).

With `Cc1nc2ccc(Cl)cc2c2c1CCN2c1ccc(F)cc1`, the GI50 with Hs-578T is 26.3 µM (inactive).

With `COc1cccc(NC(=O)C(=O)C(C(=O)c2ccccc2F)C2OC(=O)c3ccccc32)c1` (stereo not drawn), the GI50 in the assay with KM-20L2 was 33.3 µM (inactive); with LXFL 529, 33.6 µM (inactive); with M19-MEL, 22.9 µM (inactive); with SNB-78, 15.5 µM (inactive).

`COc1cc(S(=O)(=O)Nc2ccc(-c3csc(N4C(=O)C(Cl)C4c4ccccc4)n3)cc2)ccc1Cl` (stereo not drawn): in the assay with Hs-578T, the GI50 was > 100 µM (inactive).

`CCOc1ccccc1/C=C(/C#N)C(N)=O`: the GI50 in the assay on Hs-578T is > 100 µM (inactive).

As for `Oc1ccc2ccccc2c1C(c1ccc(Cl)cc1)c1c(O)ccc2ccccc12`, the GI50 in the assay on Hs-578T was 0.989 µM (active).

Take `CC1(C)OCC(C(O)C2OC(C)(C)OC2/C=N\O)O1` (stereo not drawn): the GI50 with DMS-114 is > 100 µM (inactive); in the assay with HOP-18, 37.5 µM (inactive); with KM-20L2 it was > 100 µM (inactive); in the assay with LXFL 529, > 100 µM (inactive); in the assay on M19-MEL, > 100 µM (inactive); in the assay on SNB-78, > 100 µM (inactive). Besides, the GI50 with XF498 is > 100 µM (inactive).

As for `CC[C@@]1(O)C(=O)OCc2c1cc1n(c2=O)Cc2c-1nc1ccc(N)cc1c2CC[Si](C)(C)C`, the GI50 in the assay on Hs-578T was 0.134 µM (active).

As to `CCOC(=O)c1cc(C2(O)CCN(CC(C)CC)C2=O)c(-c2cc(C)no2)[nH]1` (stereo not drawn), the GI50 with Hs-578T is > 100 µM (inactive).

Consider `COc1cc(CN(C)N2C(=O)c3cccc4cc([N+](=O)[O-])cc(c34)C2=O)cc(OC)c1OC`, for which the GI50 in the assay on Hs-578T is 44.1 µM (inactive).

Turning to `O=C1NC(O)c2cc3ccccc3cc2O1` (stereo not drawn), the GI50 in the assay with Hs-578T was 37.1 µM (inactive).

Consider `COC(=O)C(C(=O)C(=O)Nc1c(Cl)cc([N+](=O)[O-])cc1Cl)c1csc(-n2nc(C3=CCCCC3)cc2-c2ccccc2)n1` (stereo not drawn), for which the GI50 was 10.3 µM (inactive) in the assay on HOP-18; 29 µM (inactive) with KM-20L2; 40.7 µM (inactive) in the assay with LXFL 529; 52.7 µM (inactive) in the assay with M19-MEL; 45.6 µM (inactive) with RXF 631; 40 µM (inactive) in the assay on SNB-78.

Take `c1ccc(C2=NCCN2)c(C2=NCCN2)c1`: the GI50 in the assay with Hs-578T was > 100 µM (inactive).

For the compound `O=C(NCCCN1CCN(CCCNC(=O)Nc2cccc3ccccc23)CC1)Nc1cccc2ccccc12`, in the assay with Hs-578T, the GI50 was 17.5 µM (inactive).

Turning to `COC(=O)/C=C1/OC(c2ccc(OC)cc2)=C(Cl)C1=O`, the GI50 in the assay with Hs-578T was 25.8 µM (inactive).

Turning to `COc1ccc(C(=C(I)c2ccccc2)c2ccc(OC)cc2)cc1`, in the assay with Hs-578T, the GI50 is > 100 µM (inactive).

Regarding `C[C@]12CCC(=O)C=C1CC[C@@H]1[C@@H]2[C@@H](O)C[C@@]2(C)[C@H]1CC[C@]2(O)C(=O)COC(=O)COCC(=O)O`, the GI50 was > 100 µM (inactive) in the assay on DMS-114; > 100 µM (inactive) in the assay on HOP-18; > 100 µM (inactive) in the assay with KM-20L2; > 100 µM (inactive) with M19-MEL; 20.9 µM (inactive) with SNB-78; > 100 µM (inactive) in the assay with XF498.

Regarding `COc1cc(O)c2c(O)c3c(c4c2c1[C@]1(C4)C(C)=CCCC1(C)C)[C@H](O)[C@@]1(O)CC(O)=C(C(N)=O)C(=O)[C@@]1(O)C3=O`, in the assay with Hs-578T, the GI50 was 0.147 µM (active).

As for `COC(=O)[C@@H]1CO[C@H](C(C)(C)C)N1C(=O)N1C=CC(=O)C[C@H]1C`, in the assay with Hs-578T, the GI50 was > 100 µM (inactive).

With `CCOC(=O)CNc1nnnn1C1OC(CO)C(O)C1O` (stereo not drawn), the GI50 in the assay on DMS-114, in the assay on KM-20L2, with LXFL 529, with M19-MEL, in the assay on SNB-78 and with XF498 was > 100 µM (inactive) in each case.

On to `COc1c2ccoc2c(S(=O)(=O)Nc2ccc(Cl)cc2)c2oc(C)cc(=O)c12`, for which the GI50 is > 68.2 µM (inactive) with DMS-114; > 54.8 µM (inactive) in the assay on HOP-18; > 100 µM (inactive) in the assay with KM-20L2; > 100 µM (inactive) in the assay on M19-MEL; > 100 µM (inactive) in the assay on SNB-78; > 85.1 µM (inactive) with XF498.

Regarding `Cc1ccc2c(c1C)C(=O)C1(Cc3cc4c(cc3C1=O)CCC4)C2` (stereo not drawn), in the assay with Hs-578T, the GI50 was > 100 µM (inactive).

For `COc1ccc2c(c1)CCN1CCCc3ccccc3C21` (stereo not drawn), in the assay on Hs-578T, the GI50 was 42.1 µM (inactive).

For the compound `CC(C)[Si](CC1=CCCCC12C(=O)N(COCC[Si](C)(C)C)c1ccccc12)(C(C)C)C(C)C` (stereo not drawn), the GI50 in the assay on Hs-578T is > 100 µM (inactive).

Take `N#CNC(=N)NC(=O)/C=C/C=C/c1ccc(Cl)cc1`: the GI50 in the assay with DMS-114 was 84.5 µM (inactive); in the assay on HOP-18 it was > 100 µM (inactive); in the assay on KM-20L2 it was > 100 µM (inactive); in the assay on LXFL 529 it was 47.4 µM (inactive); in the assay with M19-MEL, > 100 µM (inactive); with SNB-78 it was 55.1 µM (inactive).

On to `O=C(C#Cc1ccccc1)N1CCCCC1`, for which, in the assay on Hs-578T, the GI50 is > 100 µM (inactive).

`CC(NC(=O)N(C)C)NC(=O)N(C)C`: the GI50 in the assay with Hs-578T is > 10 µM (inactive).

As to `CCC1=C(CC2NCCc3cc(OC)c(OC)cc32)CC2c3ccccc3CCN2C1` (stereo not drawn), in the assay on Hs-578T, the GI50 is 15.4 µM (inactive).

Consider `CC(O)C1CC1(CO)CNc1cc(Cl)nc(N)n1` (stereo not drawn), for which, in the assay with Hs-578T, the GI50 is > 100 µM (inactive).

With `CC1CCC(C(C)C)C(O[C@@H]2OC(=O)C[C@@H]2Sc2ccccc2)C1` (stereo partly drawn), the GI50 in the assay on DMS-114 is 19.5 µM (inactive); in the assay on KM-20L2, > 10 µM (inactive); in the assay with LXFL 529 it was 19.1 µM (inactive); in the assay with M19-MEL, 24 µM (inactive); in the assay with RXF 631, 21.2 µM (inactive); with SNB-78, 25.3 µM (inactive).

On to `C/C=N\n1c(C)c(C#N)c(C#N)c1N`, for which, in the assay on Hs-578T, the GI50 was > 100 µM (inactive).

On to `O=S(=O)(CC(O)C(Cl)(Cl)Cl)NNc1ccccc1` (stereo not drawn), for which the GI50 with Hs-578T is > 100 µM (inactive).

As for `CCCCC1(O)CC2CC1C(C)C2(C)C` (stereo not drawn), the GI50 in the assay on Hs-578T is 84.5 µM (inactive).

Regarding `CCOc1ccc(NC(=O)C(=O)Nn2c(N)nnc2N)cc1`, the GI50 in the assay on Hs-578T is > 100 µM (inactive).

`COc1ccc(-c2cc(-c3ccco3)c(C#N)c(=O)[nH]2)cc1`: the GI50 is 79.6 µM (inactive) in the assay with DMS-114; 15.9 µM (inactive) in the assay with HOP-18; > 100 µM (inactive) with KM-20L2; 44 µM (inactive) in the assay on LXFL 529; 87.9 µM (inactive) in the assay with M19-MEL; > 100 µM (inactive) with RXF 631. Moreover, the GI50 with SNB-78 is > 100 µM (inactive).

With `CCCCCCCCCCc1c2nc(c(CCCCCCCCCC)c3ccc([nH]3)c(CCCCCCCCCC)c3nc(c(CCCCCCCCCC)c4ccc1[nH]4)C=C3)C=C2`, the GI50 with Hs-578T was 30 µM (inactive).

`Cc1c([N+](=O)[O-])ccc2c(NCCCN(C)C)ccnc12`: in the assay with Hs-578T, the GI50 is 24 µM (inactive).

Turning to `O=c1oc2cc(/N=C/c3ccccc3Cl)ccc2c2ccccc12`, the GI50 in the assay with Hs-578T is > 100 µM (inactive).

Turning to `CC(C)=CCC/C(C)=C/CC/C(C)=C/CCN(C)CCO`, the GI50 in the assay with Hs-578T was 1.88 µM (inactive).

In the case of `O=c1oc2c/c(=C\c3ccccc3)c(=O)c3cccc1c3-2`, the GI50 in the assay on Hs-578T is 14.8 µM (inactive).

As for `CN(C)CC(O)c1ccc(Cl)c2ccccc12` (stereo not drawn), the GI50 in the assay with Hs-578T was 38.2 µM (inactive).

Take `Oc1cc(N2CCCC2)ccc1/C=N/N1C(=S)N(c2ccccc2)C(=N\c2ccccc2)/C1=N/c1ccccc1`: the GI50 in the assay on Hs-578T was 60.4 µM (inactive).

Take `O=C(C/C(CCC(=O)N(Cc1ccccc1)Cc1ccccc1)=N/Nc1ccc([N+](=O)[O-])cc1[N+](=O)[O-])c1ccccc1`: the GI50 is > 100 µM (inactive) in the assay on DMS-114; > 100 µM (inactive) in the assay with HOP-18; 33.3 µM (inactive) with KM-20L2; 25 µM (inactive) in the assay with LXFL 529; 68.4 µM (inactive) in the assay with M19-MEL; > 100 µM (inactive) in the assay with SNB-78. Moreover, the GI50 with XF498 is > 100 µM (inactive).

Take `OCC1=CC(NC2CC(CO)C(O)C(O)C2O)C(O)C(O)C1O` (stereo not drawn): the GI50 in the assay on DMS-114 was > 100 µM (inactive); with HOP-18 it was > 100 µM (inactive); in the assay on M19-MEL it was > 100 µM (inactive); in the assay on XF498, 64.9 µM (inactive).

On to `CN(C)/N=N/c1ccc2[nH]c(=O)[nH]c2c1`, for which, in the assay on Hs-578T, the GI50 was > 100 µM (inactive).

On to `Cc1cn(CCCCCCOC(=O)NC(CCCNC(N)=O)C(=O)O)c(=O)[nH]c1=O` (stereo not drawn), for which the GI50 with Hs-578T is > 100 µM (inactive).

As for `O=c1[nH]nc(Cc2ccccc2)n1/N=C\CC/C=N\n1c(Cc2ccccc2)n[nH]c1=O`, the GI50 with Hs-578T was 20.2 µM (inactive).

In the case of `Cc1ccc(/N=N/c2c(O)ccc3cc(S(=O)(=O)O)ccc23)c(C)c1`, in the assay with Hs-578T, the GI50 was > 100 µM (inactive).

As for `Cc1cc(-c2nc3cc(F)ccc3s2)ccc1N`, the GI50 in the assay with Hs-578T was 26.5 µM (inactive).

Turning to `CC(=O)Oc1ccc(/C=C/C(=O)O[C@@H](C)[C@H](C)OC(=O)/C=C/c2ccc(OC(C)=O)c(OC(C)=O)c2)cc1OC(C)=O`, the GI50 with Hs-578T is 11 µM (inactive).

With `c1ccc([P+](c2ccccc2)(c2ccccc2)c2ccc([P+](c3ccccc3)(c3ccccc3)c3ccccc3)cc2)cc1`, the GI50 in the assay with Hs-578T was 31.6 µM (inactive).

`CC12CC[C@@H](C(C)(C)O)C1[C@@H](O)CC1(C)C2CCC2[C@@]3(C)CC[C@H](O)C(C)(C)C3C(O)C[C@]21C` (stereo partly drawn): the GI50 was 13.6 µM (inactive) with DMS-114; 24.6 µM (inactive) with HOP-18; 10 µM (inactive) in the assay on KM-20L2; 14 µM (inactive) in the assay on LXFL 529; 24.3 µM (inactive) with M19-MEL; 18.5 µM (inactive) in the assay with RXF 631. The GI50 in the assay on SNB-78 was 14.6 µM (inactive).

`CCOC(=O)c1c2c(n3ccccc13)C(=O)c1ccccc1C2=O`: the GI50 with Hs-578T is 19.7 µM (inactive).

In the case of `O=C(C#Cc1cnc(O)nc1O)c1ccccc1Cl`, the GI50 in the assay on DMS-114 is 21.9 µM (inactive); in the assay with HOP-18, 20 µM (inactive); in the assay on SNB-78, 24.8 µM (inactive).

In the case of `CN(C)CCNc1ccc2nnn3c4ccc(O)cc4c(=O)c1c23`, the GI50 in the assay on DMS-114 is 5.79 µM (inactive); in the assay on HOP-18 it was 21.3 µM (inactive); with Hs-578T it was 2.03 µM (inactive); with KM-20L2, 7.82 µM (inactive); with LXFL 529, 3.01 µM (inactive); with SNB-78 it was 12.7 µM (inactive).
